Article PMC10706425, “Enhancing the Antimicrobial Properties of Peptides through Cell-Penetrating Peptide Conjugation: A Comprehensive Assessment” (International Journal of Molecular Sciences, 2023)
Read-outs that look alike come from different tables or passages of the source.

Experiments:
S. aureus (209P strain) = assay: Antibacterial activity in liquid medium; assay type: cell-based, Staphylococcus aureus; conditions: for Peptide Activity in Liquid Medium after 15 h of Incubation (Gentamicin as Positive Control): 209P strain, Mueller–Hinton broth, 37 °C, 2% DMSO; for Concentrations at which the peptide showed an antimicrobial effect (comparable to gentamicin): 15 h incubation, tested 0.75–12 µM, gentamicin 200 µM, Figures 3, 4
Source text: (§1) Two S. aureus strains were used: a susceptible strain 209P and a clinical isolate strain 129B (resistant to antibiotics: benzylpenicillin, clindamycin, erythromycin, oxacillin, sulfamethoxazole, and vancomycin). Two MRSA strains were included: a susceptible strain ATCC 43300 (resistant to antibiotics: methicillin, oxacillin (beta-lactam antibiotics), ampicillin (https://www.atcc.org/products/43300 (accessed on 11 November 2023)) and a clinical isolate strain SA 180 (resistant to antibiotics: benzylpenicillin and oxacillin (beta-lactam antibiotics), ciprofloxacin, clindamycin, erythromycin, levomycetin, sulfamethoxazole, and vancomycin). One B. cereus was used: a susceptible strain, IP 5832. Two P. aeruginosa strains were included: a susceptible strain, ATCC 28753, and a resistant strain, 2943. Two E. coli strains were used: a susceptible strain, K12, and a susceptible strain, MG1655.
(§2) Determination of the growth for the bacteria S. aureus strain 209P, MRSA strain ATCC 43300, B. cereus strain IP 5832, P. aeruginosa strain ATCC 28753, and E. coli strain K12 was performed using Mueller–Hinton Broth (MHB) (Sigma-Aldrich, St. Louis, MO, USA). Bacteria of S. aureus (strain 129B) and MRSA (strain SA 180-F) were grown on the brain-heart infusion (BHI) medium, and bacteria of P. aeruginosa (strain 2943) and E. coli (strain MG1655) were grown on the LB medium. The preparation and co-incubation of peptides with bacteria were carried out as described previously. The samples were grown at 37 °C.

MRSA (ATCC 43300 strain) = assay: Antibacterial activity in liquid medium; assay type: cell-based, Methicillin-resistant Staphylococcus aureus; conditions: for Peptide Activity in Liquid Medium after 15 h of Incubation (Gentamicin as Positive Control): ATCC 43300 strain, Mueller–Hinton broth, 37 °C, 2% DMSO; for Concentrations at which the peptide showed an antimicrobial effect (comparable to gentamicin): 15 h incubation, tested 0.75–12 µM, gentamicin 200 µM, Figures 3, 4
Source text: as §1, §2

E. coli (K12 strain) = assay: Antibacterial activity in liquid medium; assay type: cell-based, Escherichia coli; conditions: for Peptide Activity in Liquid Medium after 15 h of Incubation (Gentamicin as Positive Control): K12 strain, Mueller–Hinton broth, 37 °C, 2% DMSO
Source text: as §1, §2

bacteria [1] = assay: Antibacterial activity of amyloidogenic fragments alone (bacteria not given); assay type: cell-based; conditions: Table 2 and Table S1
[2] = tested on: P. aeruginosa (ATCC 28753 strain); assay: Antibacterial activity in liquid medium; assay type: cell-based, Pseudomonas aeruginosa; conditions: for Concentrations at which the peptide showed an antimicrobial effect (comparable to gentamicin): 15 h incubation, tested 0.75–12 µM, gentamicin 200 µM, Figures 3, 4
Source text: as §1, §2

E. coli (MG1655 strain) = assay: Antibacterial activity in liquid medium; assay type: cell-based, Escherichia coli; conditions: LB medium, 37 °C
Source text: as §1, §2

[3] = tested on: B. cereus (IP 5832 strain); assay: Antibacterial activity in liquid medium; assay type: cell-based, Bacillus cereus; conditions: 15 h incubation; tested 0.75–12 µM; gentamicin 200 µM; Figures 3, 4
Source text: as §1, §2

S. aureus (129B strain) = assay: Antibacterial activity in liquid medium, clinical isolate; assay type: cell-based, Staphylococcus aureus; conditions: BHI medium, 37 °C
Source text: as §1, §2

MRSA (SA 180-F strain) = assay: as above; assay type: cell-based, Methicillin-resistant Staphylococcus aureus; conditions: BHI medium, 37 °C
Source text: as §1, §2

[4] = tested on: P. aeruginosa (2943 strain); assay: Antibacterial activity in liquid medium, resistant strain; assay type: cell-based, Pseudomonas aeruginosa; conditions: LB medium, 37 °C
Source text: as §1, §2

human skin fibroblasts [5] = assay: Cytotoxic effect, calcein AM / propidium iodide flow cytometry; assay type: cell-based; conditions: 50 µg/mL, with and without pre-incubation; 96 h
Protocol: (§3) The culture of normal human fibroblasts was obtained from the skin areas of the inner surface of the forearm of healthy volunteers after their consent using the explant method. All volunteers gave their informed consent for inclusion before they participated in the study. The study was conducted in accordance with the Declaration of Helsinki, and the protocol was approved by the Ethics Committee of ITEB RAS No. 43/2023. The culture of normal human fibroblasts was obtained from the skin areas of the inner surface of the forearm using the explant method. A 5 × 5 mm skin explant was washed for several minutes in phosphate buffer containing 400 μg/mL gentamicin sulfate. […] After the release of cells from the fragments, the cells were detached from the surface of the culture plastic, and the number of cells was determined. […]
The number of living and dead cells was determined by staining cells with the fluorescent dyes calcein AM (Sigma-Aldrich, St. Louis, MO, USA) and propidium iodide (Sigma-Aldrich, St. Louis, MO, USA). […] Live and dead cells were analyzed using a BD Accuri C6 flow cytometer (BD Bioscience, San Jose, CA, USA).

BT474 cells = assay: as above; assay type: cell-based, human; conditions: 50 µg/mL, with and without pre-incubation; 96 h
Protocol: (§4) BT474 human breast duct carcinoma cells were obtained from the American Collection of Type Cell Cultures (Manassas, Virginia, VA, USA). BT474 cells were cultured in DMEM medium (Sigma-Aldrich, St. Louis, MO, USA) supplemented with 10% fetal calf serum (Gibco, Waltham, MA, USA) and 40 μg/mL gentamicin sulfate (Sigma-Aldrich, St. Louis, MO, USA) at 37 °C under conditions of 5% CO2 in the air.
The number of living and dead cells was determined by staining cells with the fluorescent dyes calcein AM (Sigma-Aldrich, St. Louis, MO, USA) and propidium iodide (Sigma-Aldrich, St. Louis, MO, USA). Cells were detached from the surface of the samples using an Accutase cocktail. Cells were stained in L-15 medium with 1% fetal bovine serum containing 1 μg/mL calcein AM and 2 μg/mL propidium iodide for 25 min at 37 °C. Live and dead cells were analyzed using a BD Accuri C6 flow cytometer (BD Bioscience, San Jose, CA, USA).

human skin fibroblasts [6] = assay: Cytostatic effect, cell cycle phases and mitotic activity; assay type: cell-based; conditions: 50 μg/mL, with and without pre-incubation
Protocol: as §3
(§5) To determine the mitotic activity, the cells were washed in phosphate-buffered saline (300 g, 5 min) and fixed with 70% ethanol (24 h, −20 °C). Then, they were stained with bisBenzimide H 33342 fluorescent dye at a concentration of 1 μg/mL for 10 min at room temperature, and the number of mitotic cells was counted using a DM 6000 fluorescent microscope (Leica, Wetzlar, Germany). At least 500 cells were analyzed.

BT-474 cells = assay: as above; assay type: cell-based, human; conditions: 50 μg/mL, with and without pre-incubation
Protocol: as §4
To study the distribution of cells over the phases of the cell cycle, cells were collected, washed in phosphate-buffered saline (300 g, 5 min), and fixed with 70% ethanol (24 h, −20 °C). Staining was carried out for 15 min at 37 °C in the following medium: phosphate-buffered saline, 0.1% Triton X100, 10 μg/mL propidium iodide, and 100 μg/mL RNase (Biolot, St. Petersburg, Russia). The analysis was performed using a BD Accuri C6 flow cytometer (BD Bioscience, San Jose, CA, USA). The obtained results were processed in the ModFit LT 4.1 program.
as §5

[7] = Thioflavin T fluorescence assay for amyloid-like aggregates; assay type: physicochemical; conditions: 24 h, 37 °C, 450 rpm; 50 mM TrisHCl pH 7.5, 150 mM NaCl, 20% DMSO; 200 µM ThT; peptide up to 190–380 μM (1 mg/mL)
Source text: ThT, a benzothiazole dye, is known for its unique property of binding to amyloids and amyloid-like fibrils. This interaction results in a substantial increase in the fluorescence intensity of ThT, typically observed at a wavelength of around 485 nm.
The spectra of fluorescence intensity of free ThT and in solution with individual peptides were studied by us using the method of fluorescence spectroscopy as described previously.

[8] = over the tested concentration range; cited from earlier work
Protocol: Analysis of the cytostatic effect was performed on the basis of the distribution of cells by phases of the cell cycle and mitotic activity.

bacteria [9] = conditions: cited from earlier work
Source text: Generally, the mechanisms by which AMPs act against bacteria depend on the properties of the bacterial cell wall. Gram-positive bacteria have a thick peptidoglycan layer, while Gram-negative bacteria have an outer membrane and a thinner peptidoglycan layer, which can impact the effectiveness of different antimicrobial strategies. […] If the peptide contained only the Antp fragment, then, in general, its antimicrobial activity was lower com ...

Sequence	Peptide Activity in Liquid Medium after 15 h of Incubation (Gentamicin as Positive Control) (S. aureus (209P strain))	Peptide Activity in Liquid Medium after 15 h of Incubation (Gentamicin as Positive Control) (MRSA (ATCC 43300 strain))	Peptide Activity in Liquid Medium after 15 h of Incubation (Gentamicin as Positive Control) (E. coli (K12 strain))	Concentrations at which the peptide showed an antimicrobial effect (comparable to gentamicin) (S. aureus (209P strain))	Concentrations at which the peptide showed an antimicrobial effect (comparable to gentamicin) (MRSA (ATCC 43300 strain))	Concentrations at which the peptide showed an antimicrobial effect (comparable to gentamicin) [2]	Peptide Activity in Liquid Medium after 24 h of Incubation (Meropenem as a Positive Control) (E. coli (MG1655 strain))	Concentrations at which the peptide showed an antimicrobial effect (comparable to gentamicin) [3] [µM]	Peptide Activity in Liquid Medium after 24 h of Incubation (Meropenem as a Positive Control) (S. aureus (129B strain))	Peptide Activity in Liquid Medium after 24 h of Incubation (Meropenem as a Positive Control) (MRSA (SA 180-F strain))	Peptide Activity in Liquid Medium after 24 h of Incubation (Meropenem as a Positive Control) [4]	Cytotoxic effect (human skin fibroblasts [5])	Cytotoxic effect (BT474 cells)	Proliferative activity (cytostatic effect) (human skin fibroblasts [6])	Proliferative activity (cytostatic effect) (BT-474 cells)	also measured
ITDFGIFIGL [I10L^P]	913 µM	913 µM	913 µM	–	–	–	–	–	–	–	–	–	–	–	–	Concentration with antibacterial activity, amyloidogenic fragment alone (bacteria [1]): 913 µM
ITDFGIFIGLGGGGSRQIKIWFQNRRMKWKK [I31K^P, Amyloidogenic fragment of S1 from P. aeruginosa + CPP2 (Antennapedia fragment), 31 a.a]	>12 µM, 209P strain	>12 µM, ATCC 43300 strain	>12 µM, K12 strain	did not show strong effects	did not show strong effects	not found	>2750 µM, MG1655 strain	12	>2750 µM, 129B strain	>2750 µM, SA 180-F strain	>2750 µM, 2943 strain	lacked cytotoxic effects	lacked cytotoxic effects	did not even suppress their proliferative activity	did not even suppress their proliferative activity	Peptide Activity in Liquid Medium after 15 h of Incubation (Gentamicin as Positive Control) ([2]; ATCC 28753, Mueller–Hinton broth, 37 °C, 2% DMSO): >12 µM, ATCC 28753
RKKRRQRRRGGGGITDFGIFIGL [R23L^P]	12 µM	12 µM	12 µM	12 µM	12 µM	6 to 12 µM	≥3780 µM, MG1655 strain	1.5 to 12	>3780 µM, 129B strain	>3780 µM, SA 180-F strain	≥3780 µM, 2943 strain	lacked cytotoxic effects	lacked cytotoxic effects	did not even suppress their proliferative activity	did not even suppress their proliferative activity	ThT fluorescence intensity at ~485 nm [7]: multiple increase in the fluorescence intensity of ThT; Concentrations at which the peptide showed an antimicrobial effect (comparable to gentamicin) (E. coli (K12 strain); 15 h incubation, tested 0.75–12 µM, gentamicin 200 µM, Figures 3, 4): 12 µM; Cytotoxic effect [8]: not been shown to have significant effects
VTDFGVFVEI [Amyloidogenic fragment from S1 T. thermophilus]	–	–	–	–	–	–	–	–	–	–	–	–	–	–	–	Concentration with antibacterial activity, amyloidogenic fragment alone (bacteria [9]): 913 µM
